# From PubChem BioAssay (NCI)
#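 Results reflect a 48-hour exposure of cells in 96-well plates to compound at five concentrations. The concentration for 50% growth inhibition is given as GI50. Definition used: TGI = concentration required for complete inhibition of growth.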
# Key:
# Experiment in all cases: NCI tumour cell line growth inhibition, 48 h
# SW-620 colon = test system: SW-620 colon
# HCT-15 colon = test system: HCT-15 colon
# RXF 393 renal = test system: RXF 393 renal
# HS 578T breast = test system: HS 578T breast
# A549 NSCLC = test system: A549 NSCLC
# NCI/ADR-RES ovarian = test system: NCI/ADR-RES ovarian
# SK-MEL-5 melanoma = test system: SK-MEL-5 melanoma
# SR leukemia = test system: SR leukemia
# HOP-62 NSCLC = test system: HOP-62 NSCLC
# MOLT-4 leukemia = test system: MOLT-4 leukemia
Structure (SMILES),GI50 (SW-620 colon) [µM],TGI (SW-620 colon) [µM],GI50 (HCT-15 colon) [µM],TGI (HCT-15 colon) [µM],GI50 (RXF 393 renal) [µM],TGI (RXF 393 renal) [µM],GI50 (HS 578T breast) [µM],TGI (HS 578T breast) [µM],GI50 (A549 NSCLC) [µM],TGI (A549 NSCLC) [µM],GI50 (NCI/ADR-RES ovarian) [µM],TGI (NCI/ADR-RES ovarian) [µM],GI50 (SK-MEL-5 melanoma) [µM],TGI (SK-MEL-5 melanoma) [µM],GI50 (SR leukemia) [µM],TGI (SR leukemia) [µM],GI50 (HOP-62 NSCLC) [µM],TGI (HOP-62 NSCLC) [µM],GI50 (MOLT-4 leukemia) [µM],TGI (MOLT-4 leukemia) [µM]
CC1=C(C(=O)Nc2ccc(F)c(Cl)c2)C(c2cccc(O)c2)NC(=S)N1 (stereo not drawn),20.6,> 50,47.8,> 50,14,30.5,13.7,47,21,> 50,> 50,> 50,11.2,40.3,16.4,> 50,> 50,> 50,–,–
CN(C)CCCNC(=O)c1cc(NC(=O)c2cc(NC(=O)CCCN3c4ccccc4C=Cc4ccccc43)cn2C)cn1C,3.96,> 100,25.7,82.7,8.61,85,4.87,40,11.5,39.9,23.6,59.9,–,–,–,–,10.2,> 100,2.88,> 100
CS(=O)(=O)c1ccc(Oc2nccc(-c3c(-c4ccc(F)cc4)ncn3C3CCNCC3)n2)cc1,> 25,> 25,> 25,> 25,> 25,> 25,> 25,> 25,> 25,> 25,> 25,> 25,> 25,> 25,–,–,> 25,> 25,> 12.9,> 18.9
C=C(CN1CCc2ccccc2C1)c1ccc(/C=C/C(=O)Nc2ccccc2N)cc1,5.07,> 100,1.69,62.9,12.1,> 100,17.1,> 100,1.79,> 100,4.27,> 100,13,31.4,–,–,5.17,> 100,3.18,> 100
O=C1CC2(CCCc3sccc32)C(=O)N1 (stereo not drawn),–,> 100,–,> 100,–,> 100,–,> 100,–,> 100,–,> 100,–,> 100,–,–,–,> 100,–,> 100
COc1cccc(-c2nc(-c3ccc(NS(=O)(=O)c4ccccc4)cc3)[nH]c2-c2ccnc(Br)c2)c1,2.83,> 100,–,–,2.18,5.73,1.71,5.17,3.11,> 100,3.44,> 100,1.87,3.49,2.85,> 100,3.39,> 100,2.74,> 100
COc1cc2c3c(n(CCCO)c(=O)c2cc1OC)-c1cc2c(cc1C3=O)OCO2,4.75,> 100,33.4,> 100,27.1,> 94.6,52,> 100,16.9,> 100,3.95,> 53.4,11.3,> 52.9,–,–,4.28,78.3,0.841,6.7
COc1cc(-c2cc(C(=O)Nc3nc4ccccc4s3)nc3cc(-c4ccccc4)nn23)cc(OC)c1OC,–,–,> 100,> 100,6.22,22.1,4.7,> 100,–,–,19.6,> 100,13.8,> 100,19.7,52.5,9.87,27.2,> 100,> 100
NCCCn1c2c(c3ccccc3c1=O)C(=O)c1cc3c(cc1-2)OCO3,0.111,2.35,0.101,0.882,2.35,> 30.3,0.687,4.31,0.0273,0.658,1.05,4.43,0.122,0.802,–,–,0.278,12.2,< 0.01,–
O=C1c2cccnc2-c2nc(-c3ccccn3)cc3c2c1nc1ccccc13,–,–,< 0.0209,0.259,0.285,5.84,0.705,4.65,1.38,3.39,0.208,0.658,0.265,1.65,–,25.3,0.139,1.49,0.211,4.09
CCN(CC)c1ccc2[nH]c3c(C(N)=O)cc(=O)c(=O)c=3oc2c1,2.36,> 100,1.51,> 100,1.37,6.39,0.663,> 100,1.75,5.12,1.72,11.8,1.22,2.49,2.84,8.74,0.445,15.4,–,–
